Test results from patent publication US7271147B2, “Antibiotics, tripropeptins and process for producing the same” (Zaidan Hojin Biseibutsu Kagaku Kenkyu Kai, priority 2000, dated 2007).
Converted amounts (≈) assume the structure as drawn. Read-outs that look alike come from different tables or passages of the source. Starred links: 1 amine or outer side, 2 acyl side, 3 side chain; linkers in the order of their positions; H or OH if unused. Positions of bridges follow the written chain, without caps; N, C: chain ends. Non-standard residues stand in square brackets, D forms with d. Residues, ends and D or L forms follow the SMILES beside them. ξ: configuration not given here. X4 = CC(C)CCCCCCCCCCC(CC(=O)[*:1])O[*:2]; X2 = CC(C)CCCCCCCCCC(CC(=O)[*:1])O[*:2]; X3 = CC(C)CCCCCCC(CC(=O)[*:1])O[*:2]; ξAsp(3ξ-OH) = NC(C(=O)O)C(O)C(=O)O; X1 = O=C(C1C(O)CCN1[*:1])[*:2]

Key:
[1] = system: Staphylococcus aureus MS9610 (multi-drug-resistant); experiment: Minimum growth inhibitory concentration, agar serial dilution; format: cell-based; conditions: Mueller-Hinton agar
[2] = system: Enterococcus faecium NCTC 12204 (vancomycin-resistant); experiment: as above; format: cell-based; conditions: NCTC12204, 5% sheep blood-supplemented Mueller-Hinton agar
[3] = system: Staphylococcus aureus TY-03456 (methicillin-resistant); experiment: as above; format: cell-based; conditions: read-out: Minimum growth inhibitory concentration
[4] = system: mice (ICR type, 4 weeks-aged, male); conditions: mouse, in vivo, iv, 300 mg/kg
Text: However, an optimal dose of a tripropeptin can be decided by experts through suitable preliminary tests.

[5] = system: Shigella sonnei JS11746; experiment: Minimum growth inhibitory concentration, agar serial dilution; format: cell-based; conditions: Mueller-Hinton agar
Procedure: Minimum growth inhibitory concentrations (μg/ml) of tripropeptin Z against a variety of microorganisms were measured on a Mueller-Hinton agar medium (manufactured by Difco Laboratories) or on a 5% sheep blood-supplemented Mueller-Hinton agar medium (manufactured by Difco Laboratories) for Enterococcus, by a serial dilution method according to the standard method as provided by Japanese Society of Chemotherapy.
Minimum growth inhibitory concentrations (μg/ml) of tripropeptin A against a variety of microorganisms were measured on a Mueller-Hinton agar medium (manufactured by Difco Laboratories) or on a 5% sheep blood-supplemented Mueller-Hinton agar medium (manufactured by Difco Laboratories) for Enterococcus, by a serial dilution method according to the standard method as provided by Japanese Society of Chemotherapy.
Minimum growth inhibitory concentrations (μg/ml) of tripropeptin B against a variety of microorganisms were measured on a Mueller-Hinton agar medium (manufactured by Difco Laboratories) or on a 5% sheep blood-supplemented Mueller-Hinton agar medium (manufactured by Difco Laboratories) for Enterococcus, by a serial dilution method according to the standard method as provided by Japanese Society of Chemotherapy.
Minimum growth inhibitory concentrations (μg/ml) of tripropeptin C against a variety of microorganisms were measured on a Mueller-Hinton agar medium (manufactured by Difco Laboratories) or on a 5% sheep blood-supplemented Mueller-Hinton agar medium (manufactured by Difco Laboratories) for Enterococcus, by a serial dilution method according to the standard method as provided by Japanese Society of Chemotherapy.
Minimum growth inhibitory concentrations (μg/ml) of tripropeptin D against a variety of microorganisms were measured on a Mueller-Hinton agar medium (manufactured by Difco Laboratories) or on a 5% sheep blood-supplemented Mueller-Hinton agar medium (manufactured by Difco Laboratories) for Enterococcus, by a serial dilution method according to the standard method as provided by Japanese Society of Chemotherapy.

[6] = system: Staphylococcus aureus MS16497 (methicillin-resistant); experiment: as above; format: cell-based; conditions: Mueller-Hinton agar
[7] = system: Staphylococcus aureus TY-04282 (methicillin-resistant); experiment: as above; format: cell-based; conditions: Mueller-Hinton agar
[8] = system: Staphylococcus aureus Smith; experiment: as above; format: cell-based; conditions: Mueller-Hinton agar
[9] = system: Enterococcus faecalis NCTC 12203 (vancomycin-resistant); experiment: as above; format: cell-based; conditions: NCTC12203, 5% sheep blood-supplemented Mueller-Hinton agar
[10] = system: Staphylococcus aureus MS16460 (methicillin-resistant); experiment: as above; format: cell-based; conditions: read-out: Minimum growth inhibitory concentration
[11] = system: Staphylococcus aureus FDA209P; experiment: as above; format: cell-based; conditions: Mueller-Hinton agar
[12] = system: Enterococcus faecium NCTC 12202 (vancomycin-resistant); experiment: as above; format: cell-based; conditions: NCTC12202, 5% sheep blood-supplemented Mueller-Hinton agar
[13] = system: Enterococcus faecalis JCM5803; experiment: as above; format: cell-based; conditions: 5% sheep blood-supplemented Mueller-Hinton agar
[14] = system: Staphylococcus aureus TY-00933 (methicillin-resistant); experiment: as above; format: cell-based; conditions: read-out: Minimum growth inhibitory concentration
[15] = system: Staphylococcus aureus TY-03454 (methicillin-resistant); experiment: as above; format: cell-based; conditions: Mueller-Hinton agar
[16] = system: Salmonella typhi T-63; experiment: as above; format: cell-based; conditions: Salmonella enterica, Mueller-Hinton agar
[17] = system: Micrococcus luteus FDA16; experiment: as above; format: cell-based; conditions: Mueller-Hinton agar
[18] = system: Bacillus cereus ATCC10702; experiment: as above; format: cell-based
[19] = system: Enterococcus faecalis NCTC 12201 (vancomycin-resistant); experiment: as above; format: cell-based; conditions: NCTC12201, 5% sheep blood-supplemented Mueller-Hinton agar
[20] = system: Klebsiella pneumoniae PCI602; experiment: as above; format: cell-based; conditions: Mueller-Hinton agar
[21] = system: Enterococcus faecium JCM5804; experiment: as above; format: cell-based; conditions: 5% sheep blood-supplemented Mueller-Hinton agar
[22] = system: Bacillus anthracis; experiment: microbe, parasite or virus in culture; format: cell-based; conditions: read-out: Minimum growth inhibitory concentration
[23] = system: Staphylococcus aureus MS16526 (methicillin-resistant); experiment: Minimum growth inhibitory concentration, agar serial dilution; format: cell-based; conditions: Mueller-Hinton agar
[24] = system: Corynebacterium bovis 1810; experiment: as above; format: cell-based; conditions: Mueller-Hinton agar
[25] = system: Bacillus subtilis PCI219; experiment: as above; format: cell-based; conditions: Mueller-Hinton agar
[26] = Bacillus cereus, ATCC10702, read-out: Minimum growth inhibitory concentration
[27] = Staphylococcus aureus TY-03456 (methicillin-resistant), Mueller-Hinton agar
[28] = Staphylococcus aureus TY-00933 (methicillin-resistant), Mueller-Hinton agar

| Compound | MIC [1] | MIC [2] | MIC [5] | MIC [6] | MIC [7] | MIC [8] | MIC [9] | MIC [11] | MIC [12] | MIC [13] | MIC [15] | MIC [16] | MIC [17] | MIC [19] | MIC [20] | MIC [21] | MIC [22] | MIC [23] | MIC [24] | MIC [25] | also measured |
| --- | --- | --- | --- | --- | --- | --- | --- | --- | --- | --- | --- | --- | --- | --- | --- | --- | --- | --- | --- | --- | --- |
| CC(C)CCCCCCCCCC1CC(=O)NC(C(C)O)C(=O)N2CCCC2C(=O)N2CCCC2C(=O)NC(CCCNC(=N)N)C(=O)NC(C(O)C(=O)O)C(=O)NC(CO)C(=O)N2CCC(O)C2C(=O)NC(C(O)C(=O)O)C(=O)O1 (stereo not shown) [Tripropeptin C] (TPPR[ξAsp(3ξ-OH)]S[X1][ξAsp(3ξ-OH)]; linker N-C via X2; configuration not given here) | 1.56 µg/mL (≈ 1.35 µM) | 12.5 µg/mL (≈ 10.8 µM) | > 100 µg/mL | 1.56 µg/mL (≈ 1.35 µM) | 1.56 µg/mL (≈ 1.35 µM) | 1.56 µg/mL (≈ 1.35 µM) | 25 µg/mL (≈ 21.7 µM) | 1.56 µg/mL (≈ 1.35 µM) | 12.5 µg/mL (≈ 10.8 µM) | 12.5 µg/mL (≈ 10.8 µM) | 1.56 µg/mL (≈ 1.35 µM) | > 100 µg/mL | 0.2 µg/mL (≈ 0.173 µM) | 6.25 µg/mL (≈ 5.41 µM) | > 100 µg/mL | 12.5 µg/mL (≈ 10.8 µM) | 3.13 µg/mL (≈ 2.71 µM) | 1.56 µg/mL (≈ 1.35 µM) | 0.39 µg/mL (≈ 0.338 µM) | 1.56 µg/mL (≈ 1.35 µM) | MIC ([3]; Staphylococcus aureus): 3.13 µg/mL (≈ 2.71 µM); Toxicity [4]: did not exhibit any toxicity; MIC ([10]; Staphylococcus aureus): 3.13 µg/mL (≈ 2.71 µM); MIC ([14]; Staphylococcus aureus): 3.13 µg/mL (≈ 2.71 µM); MIC [18, 26]: 3.13 µg/mL (≈ 2.71 µM) |
| CC(C)CCCCCCCCCCC1CC(=O)NC(C(C)O)C(=O)N2CCCC2C(=O)N2CCCC2C(=O)NC(CCCNC(=N)N)C(=O)NC(C(O)C(=O)O)C(=O)NC(CO)C(=O)N2CCC(O)C2C(=O)NC(C(O)C(=O)O)C(=O)O1 (stereo not shown) [Tripropeptin D] (TPPR[ξAsp(3ξ-OH)]S[X1][ξAsp(3ξ-OH)]; linker N-C via X4; configuration not given here) | 0.78 µg/mL (≈ 0.668 µM) | 6.25 µg/mL (≈ 5.35 µM) | > 100 µg/mL | 0.78 µg/mL (≈ 0.668 µM) | 0.78 µg/mL (≈ 0.668 µM) | 0.39 µg/mL (≈ 0.334 µM) | 6.25 µg/mL (≈ 5.35 µM) | 0.39 µg/mL (≈ 0.334 µM) | 6.25 µg/mL (≈ 5.35 µM) | 3.13 µg/mL (≈ 2.68 µM) | 0.78 µg/mL (≈ 0.668 µM) | > 100 µg/mL | 0.2 µg/mL (≈ 0.171 µM) | 3.13 µg/mL (≈ 2.68 µM) | > 100 µg/mL | 6.25 µg/mL (≈ 5.35 µM) | 1.56 µg/mL (≈ 1.34 µM) | 0.78 µg/mL (≈ 0.668 µM) | 0.2 µg/mL (≈ 0.171 µM) | 0.78 µg/mL (≈ 0.668 µM) | MIC [3, 27]: 0.78 µg/mL (≈ 0.668 µM); MIC ([10]; Staphylococcus aureus): 1.56 µg/mL (≈ 1.34 µM); MIC [14, 28]: 0.78 µg/mL (≈ 0.668 µM); MIC [18, 26]: 1.56 µg/mL (≈ 1.34 µM) |
| CC(C)CCCCCCC1CC(=O)NC(C(C)O)C(=O)N2CCCC2C(=O)N2CCCC2C(=O)NC(CCCNC(=N)N)C(=O)NC(C(O)C(=O)O)C(=O)NC(CO)C(=O)N2CCC(O)C2C(=O)NC(C(O)C(=O)O)C(=O)O1 (stereo not shown) [Tripropeptin Z] (TPPR[ξAsp(3ξ-OH)]S[X1][ξAsp(3ξ-OH)]; linker N-C via X3; configuration not given here) | 25 µg/mL (≈ 22.5 µM) | > 100 µg/mL | > 100 µg/mL | 25 µg/mL (≈ 22.5 µM) | 25 µg/mL (≈ 22.5 µM) | 6.25 µg/mL (≈ 5.62 µM) | > 100 µg/mL | 12.5 µg/mL (≈ 11.2 µM) | > 100 µg/mL | 100 µg/mL (≈ 89.9 µM) | 25 µg/mL (≈ 22.5 µM) | > 50 µg/mL | < 0.39 µg/mL | 100 µg/mL (≈ 89.9 µM) | > 50 µg/mL | > 100 µg/mL | 100 µg/mL (≈ 89.9 µM) | 25 µg/mL (≈ 22.5 µM) | 6.25 µg/mL (≈ 5.62 µM) | 25 µg/mL (≈ 22.5 µM) | MIC [3, 27]: 25 µg/mL (≈ 22.5 µM); MIC ([10]; Staphylococcus aureus MS16460 (methicillin-resistant), Mueller-Hinton agar): 50 µg/mL (≈ 45 µM); MIC [14, 28]: 25 µg/mL (≈ 22.5 µM); MIC ([18]; Bacillus cereus ATCC10702, Mueller-Hinton agar, read-out: Minimum growth inhibitory concentration): > 50 µg/mL |
